Measurements taken from US3985747A, “Crystalline sesquihydrate of 7-[D-α-amino-α-(p-hydroxyphenyl)acetamido]-3-(1,2,3-triazol- 5-ylthiomethyl)-3-cephem-4-carboxylic acid” (priority 1974, dated 1976).
≈ marks a conversion by molar mass, not a printed value. Counter-ions that a name gives are not always drawn. Like-named read-outs stand apart in the source and are kept apart here. Blank lines part the entries; values can stand above or below the compound they belong to.

Assays:
D. pneumoniae A9585 = assay: M.I.C. by Tube Dilution; format: cell-based; settings: Streptococcus pneumoniae, at 10^-3 dil'n, + 5% serum, 50% Nutrient Broth - 45% Antibiotic Assay Broth, overnight 37° C.
Str. Pyogenes A9604 = assay: M.I.C. by Tube Dilution; format: cell-based; settings: Streptococcus pyogenes; at 10^-3 dil'n, + 5% serum; 50% Nutrient Broth - 45% Antibiotic Assay Broth; overnight 37° C.
S. aureus Smith A9537 = assay: M.I.C. by Tube Dilution; format: cell-based; settings: Staphylococcus aureus, overnight 37° C.
S. aureus BX1633-2 A9606 = assay: M.I.C. by Tube Dilution; format: cell-based; settings: Staphylococcus aureus, overnight 37° C.
Sal.enteritidis A9531 = assay: M.I.C. by Tube Dilution; format: cell-based; settings: Salmonella enterica
E. coli A9675 = assay: M.I.C. by Tube Dilution; format: cell-based; settings: Escherichia coli
in vivo [1] = assay: in vivo; parameters: species or system mice; settings: mouse, im, 10 mg/kg
Method: Mouse Blood Levels after IM Administration of 10 mg./kg. Dose of BL-S640

[2] = Loss of bioactivity of the solid on storage at elevated temperatures; format: physicochemical; settings: for Loss of bioactivity (potency) on storage: 43800 min
Water solubility = format: physicochemical
physchem = format: physicochemical; settings: for Bioassay: solution pH 7.1, room temperature
Source text: The above components are shaken to form an amber solution having a pH = 7.1. The solution was allowed to stand at room temperature and periodically assayed to determine stability.

bacteria = assay: Antibacterial testing in vitro and in vivo; settings: versus that reported in U.S. application Ser. No. 318,340
[3] = in vivo, po
in vivo [4] = settings: mouse, blood, po, 100 mg/kg
K. pneumoniae A9977 = assay: M.I.C. by Tube Dilution; settings: Klebsiella pneumoniae
Pr. mirabilis A9900 = assay: M.I.C. by Tube Dilution; settings: Proteus mirabilis
Pr. morganii A15153 = assay: M.I.C. by Tube Dilution; settings: Morganella morganii
Ser. marcescens A20019 = assay: M.I.C. by Tube Dilution; settings: Serratia marcescens
Ent. cloacae A9656 = assay: M.I.C. by Tube Dilution; settings: Enterobacter cloacae
Ent. cloacae A9657 = assay: M.I.C. by Tube Dilution; settings: Enterobacter cloacae
Ent. cloacae A9659 = assay: M.I.C. by Tube Dilution; settings: Enterobacter cloacae
[5] = tested on: S. aureus(methicillin resist) A15097; assay: microbe, parasite or virus in culture; settings: Staphylococcus aureus
E. coli Juhl A15119 = assay: microbe, parasite or virus in culture; settings: Escherichia coli, JUHLA15119
K. pneumoniae A15130 = assay: microbe, parasite or virus in culture; settings: Klebsiella pneumoniae
Ps. aeruginosa A9843A = assay: microbe, parasite or virus in culture; settings: Pseudomonas aeruginosa
[6] = pH 7
[7] = Loss of bound water on drying; format: physicochemical; settings: very mild conditions (air drying 37° - 45° C., 24 hours)
Method: Upon recovery of the crystalline hydrate from the reaction mixture and cooling to room temperature, the hydrate is ordinarily isolated in the form of the crystalline dihydrate. […] […] […] Upon vacuum drying at 56° C. for 24 hours a crystalline hemihydrate is formed having 0.5 moles of bound water per mole of cephalosporin. All of the above-mentioned novel crystalline hydrates are included within the scope of the present invention.

[8] = SMITHA9537, at 10^-4 dilution, + 50% serum
[9] = at 10^-4 dilution, overnight 37° C., read-out: M.I.C.

SMILES: N[C@@H](C(=O)N[C@@H]1C(=O)N2C(C(=O)O)=C(CSc3c[nH]nn3)CS[C@H]12)c1ccc(O)cc1 [BL-S640 Sesquihydrate, 7-[D-α-amino-α-(p-hydroxyphenyl)acetamido]-3-(1,2,3-triazol-5-ylthiomethyl)-3-cephem-4-carboxylic acid sesquihydrate]
MIC (D. pneumoniae A9585): 0.02 µg/mL | MIC (Str. Pyogenes A9604): 0.02 µg/mL | MIC (S. aureus Smith A9537; [8]): 1 µg/mL | MIC (S. aureus Smith A9537; SMITHA9537, at 10^-4 dilution, read-out: M.I.C.): 0.3 µg/mL | MIC (S. aureus BX1633-2 A9606; BX16332A9606, at 10^-2 dil'n): 2 µg/mL | MIC (S. aureus BX1633-2 A9606; BX16332A9606, at 10^-3 dil'n, read-out: M.I.C.): 0.6 µg/mL | MIC (Sal.enteritidis A9531; [9]): 0.6 µg/mL | MIC (E. coli A9675; [9]): 4 µg/mL | concentration at 5 min (in vivo [1]): 15000 ng/mL | concentration at 0.5 h (in vivo [1]): 13500 ng/mL | concentration at 1 h (in vivo [1]): 9400 ng/mL | concentration at 1.5 h (in vivo [1]): 6800 ng/mL | degraded at 730 h ([2]; solid, 56° C., 1 month, read-out: Loss of bioactivity (potency) on storage): < 6% | solubility (Water solubility; 25° C., read-out: Solubility in water): ~10000 µg/mL | Bio-assay (Bio-assay (biopotency)): 924 µg/mg | degraded at 0.5 h (physchem; aqueous solution, pH 7.1): 0.8% | degraded at 1 h (physchem; aqueous solution, pH 7.1): 5.8% | degraded at 1.5 h (physchem; aqueous solution, pH 7.1): 8.3% | degraded at 2 h (physchem; aqueous solution, pH 7.1): 15.9% | degraded at […] (physchem; aqueous solution, pH 7.1): 0.8% | Bioassay (physchem; 15 minutes): 238 mg/mL | Bioassay (physchem; 30 minutes): 238 mg/mL | Bioassay (physchem; 60 minutes): 226 mg/mL | Bioassay (physchem; 90 minutes): 220 mg/mL | Bioassay (physchem; 2 hours): 202 mg/mL | Bioassay (physchem; time 0): 240 mg/mL | Potency and spectrum of activity (bacteria): substantially the same potency and spectrum of activity | Biological activity when suspended in water: does not lose biological activity | Blood levels [3]: effective blood levels | concentration at 0.5 h (in vivo [4]): 46000 ng/mL | concentration at 1 h (in vivo [4]): 42500 ng/mL | concentration at 2 h (in vivo [4]): 22500 ng/mL | concentration at 3.5 h (in vivo [4]): 11900 ng/mL | MIC (K. pneumoniae A9977): 1 µg/mL | MIC (Pr. mirabilis A9900): 0.5 µg/mL | MIC (Pr. morganii A15153): 16 µg/mL | MIC (Ser. marcescens A20019): 125 µg/mL | MIC (Ent. cloacae A9656): > 125 µg/mL | MIC (Ent. cloacae A9657): 1 µg/mL | MIC (Ent. cloacae A9659): 32 µg/mL | MIC [5]: 8 µg/mL | MIC (E. coli Juhl A15119): 2 µg/mL | MIC (K. pneumoniae A15130): 2 µg/mL | MIC (Ps. aeruginosa A9843A): > 125 µg/mL

SMILES: N[C@@H](C(=O)NC1C(=O)N2C(C(=O)O)=C(CSc3cnn[nH]3)CS[C@H]12)c1ccc(O)cc1 (stereo partly drawn) [BL-S640, 7-[D-α-Amino-α-(p-hydroxyphenyl)acetamido]-3-(1,2,3-triazol-5-ylthiomethyl)-3-cephem-4-carboxylic acid]
Degradation at alkaline pH [6]: degrades very rapidly by loss of the thiol moiety

concentration at 5 min (in vivo [1]): 16100 ng/mL | concentration at 0.5 h (in vivo [1]): 11100 ng/mL | concentration at 1 h (in vivo [1]): 5700 ng/mL | concentration at 1.5 h (in vivo [1]): 2900 ng/mL
SMILES: Cc1nnc(SCC2=C(C(=O)O)N3C(=O)[C@@H](NC(=O)Cn4cnnn4)[C@H]3SC2)s1 [Cefazolin, Na salt, sodium cefazolin, reference compound]

SMILES: CC1=C(C(=O)O)N2C(=O)[C@@H](NC(=O)[C@H](N)c3ccccc3)[C@H]2SC1 [Cephalexin, cephalexin, reference compound]
MIC (S. aureus Smith A9537; [8]): 2.5 µg/mL | MIC (S. aureus Smith A9537; SMITHA9537, at 10^-4 dilution): 0.6 µg/mL (≈ 1.73 µM) | MIC (S. aureus BX1633-2 A9606; BX16332A9606, at 10^-2 dil'n): 2 µg/mL (≈ 5.76 µM) | MIC (S. aureus BX1633-2 A9606; BX16332A9606, at 10^-3 dil'n): 1 µg/mL (≈ 2.88 µM) | MIC (Sal.enteritidis A9531): 2 µg/mL (≈ 5.76 µM) | MIC (E. coli A9675): 16 µg/mL (≈ 46.1 µM) | MIC (K. pneumoniae A9977): 2 µg/mL (≈ 5.76 µM) | MIC (Pr. mirabilis A9900): 2 µg/mL (≈ 5.76 µM) | MIC (Pr. morganii A15153): > 125 µg/mL | MIC (Ser. marcescens A20019): > 125 µg/mL | MIC (Ent. cloacae A9656): > 125 µg/mL | MIC (Ent. cloacae A9659): > 125 µg/mL | MIC [5]: 32 µg/mL (≈ 92.1 µM) | MIC (E. coli Juhl A15119): 4 µg/mL (≈ 11.5 µM) | MIC (K. pneumoniae A15130): 8 µg/mL (≈ 23 µM) | MIC (Ps. aeruginosa A9843A): > 125 µg/mL

SMILES: N[C@@H](C(=O)NC1C(=O)N2C(C(=O)O)=C(CSc3cnn[nH]3)CSC12)c1ccc(O)cc1 (stereo partly drawn) [Crystalline Methanol Solvate, 7-[D-α-amino-α-(p-hydroxyphenyl)acetamido]-3-(1,2,3-triazol-5-ylthiomethyl)-3-cephem-4-carboxylic acid methanol solvate]
Bio-assay (Bio-assay (biopotency)): 850 to 900 µg/mg

Loss of bioactivity (potency) on storage ([2]; 56° C., 1 month): 37%
SMILES: N[C@@H](C(=O)NC1C(=O)N2C(C(=O)O)=C(CSc3cnn[nH]3)CSC12)c1ccc(O)cc1 (some centres unmarked) [amorphous monohydrate product]

Loss of bound water [7]: lose one-half molecule of bound water
SMILES: N[C@@H](C(=O)NC1C(=O)N2C(C(=O)O)=C(CSc3cnn[nH]3)CS[C@H]12)c1ccc(O)cc1.O.O (stereo partly drawn) [dihydrate, 7-[D-α-Amino-α-(p-hydroxyphenyl)-acetamido]-3-(1,2,3-triazol-5-ylthiomethyl)-3-cephem-4-carboxylic acid dihydrate]
Bio-assay (Bio-assay (biopotency)): 950 to 1000 µg/mg

Loss of bioactivity (potency) on storage ([2]; 56° C., 1 month): < 10% | degraded at 24 h ([2]; solid, 100° C., 24 hours): < 6% | degraded at 48 h ([2]; solid, 100° C., 48 hours): < 12% | solubility (Water solubility; 23° C., read-out: Water solubility): ~10000 µg/mL
SMILES: N[C@@H](C(=O)NC1C(=O)N2C(C(=O)O)=C(CSc3cnn[nH]3)CSC12)c1ccc(O)cc1 (stereo partly drawn) [propylene glycol solvate, 7-[D-α-amino-α-(p-hydroxyphenyl)acetamido]-3-(1,2,3-triazol-5-ylthiomethyl)-3-cephem-4-carboxylic acid propylene glycol solvate]
Bio-assay (Bio-assay (biopotency)): 750 to 790 µg/mg
